Experimental data published in paper PMC2477761, “D-glucose Stimulates the Na^+/K^+ Pump in Mouse Pancreatic Islet Cells” (International journal of experimental diabetes research, 2000).

Tested on: T1, Na+/K+ ATPase (islet homogenate, ob/ob mice)
T1 construct: gene Atp1a1
Details: read-out: apparent K 0.5; 135 mM Na+, 20 mM K+, Mg2+, pH 7.4, 37 C, 10 min; deoxycholate-treated homogenate; 1 mM ouabain difference

SMILES: Nc1ncnc2c1ncn2[C@@H]1O[C@H](COP(=O)(O)OP(=O)(O)OP(=O)(O)O)[C@@H](O)[C@H]1O [ATP]
- Km: 500 µM
